Experimental data from patent publication US20210142173A1, “NETWORK-BASED DEEP LEARNING TECHNOLOGY FOR TARGET IDENTIFICATION AND DRUG REPURPOSING” (THE CLEVELAND CLINIC FOUNDATION, priority 2019, published 2021).
Several values for one entry are separate records, joined by “and”; a condition that tells them apart may be missing. Equal values may be shown once. Read-outs that look alike come from different tables or passages of the source. Each block holds one molecule with its values, some of them ahead of it.

Assays:
[1] = test system: normal cell lines or other mice organs; experiment: Toxicity on normal cell lines or mice organs
Source text: Accordingly, as predicted by the systems and methods presented herein, topotecan is a good drug candidate in possible treatment of MS.

HEK293T cells = experiment: HEK293T cell viability; type: cell-based, human; settings: same concentration range as in the reporter assay
Source text: (§1) FIG. 7B is a graph showing the inhibitory rate as a function of topotecan concentration. […] FIG. 7C is a graph showing the effect of topotecan on fluorescence intensity. […] FIG. 7D is a graph showing the effect of topotecan on cell viability.

RORγt-LBD [2] = molecular target: T1, RORγt-LBD (Homo sapiens, UniProt P51449); experiment: HTRF coactivator (SRC-1 peptide) recruitment assay; type: biochemical; settings: read-out: IC50 (disruption of RORγt-LBD interaction with SRC-1 cofactor peptide)
T1 sequence (P51449 269-508 limits assumed): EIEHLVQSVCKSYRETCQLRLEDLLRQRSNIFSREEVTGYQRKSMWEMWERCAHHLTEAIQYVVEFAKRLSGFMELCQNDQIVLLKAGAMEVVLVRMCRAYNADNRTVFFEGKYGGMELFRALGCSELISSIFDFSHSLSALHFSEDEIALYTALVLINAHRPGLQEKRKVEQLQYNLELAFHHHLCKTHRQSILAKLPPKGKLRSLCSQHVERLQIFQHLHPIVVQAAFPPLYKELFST
Source text: Nuclear receptors execute their versatile transcriptional functions by recruiting positive and negative regulatory proteins, known as coactivators or corepressors, respectively. Agonists promote interactions between nuclear receptors and coactivators, while antagonists either inhibit coactivator binding or facilitate corepressor recruitment. The functional change of the binding of topotecan on RORγt is investigated by utilizing a HTRF assay to evaluate ligand-induced coactivator recruitment to RORγt.
FIG. 7E is another graph showing the inhibitory rate of topotecan as a function of concentration as predicted by an example deep learning network system.

[3] = Pharmacokinetics after intraperitoneal injection in mice; type: in vivo
Source text: Where Cmax is the peak concentration, Tmax is the time between administration and reaching Cmax, and t1/2 is the elimination half-life.

[4] = molecular target: retinoid X receptor α LBD (RXRα-LBD) (Homo sapiens, UniProt P19793); experiment: HPLC direct interaction with RXRα-LBD; type: binding
RORγt-LBD [5] = molecular target: T1, RORγt-LBD; experiment: HPLC direct interaction with RORγt-LBD; type: binding
human RORγt = molecular target: T2, human RORγt (Homo sapiens, UniProt P51449); experiment: Cell-based GAL4-RORγt luciferase reporter assay in HEK293T cells; settings: for inhibition at 10 µM: HEK-293T
T2 construct: expressed in transfected cells; host or cells: HEK293T
T2 sequence (P51449 269-508 limits assumed): T1 sequence (P51449 269-508 limits assumed)
Procedure: FIG. 7A is a graph showing the inhibitory rate of various drugs as predicted by an example deep learning network system. […] In total, 18 purchasable drugs for RORγt were tested using a cell-based luciferase reporter assay. In this assay, GAL4-RORγt, with fused human RORγt LBD and GAL4 DNA binding domain are co-transfected into HEK293T cells with a luciferase reporter gene harboring the GAL4 response element33.

firefly luciferase = firefly luciferase (Photinus pyralis, UniProt P08659); experiment: Control firefly luciferase activity experiment; type: cell-based; settings: control experiment for promiscuous effects on luciferase
Source text: as §1

RORγt-LBD [6] = molecular target: T1, RORγt-LBD; experiment: Circular dichroism (CD) spectrum of RORγt; type: binding
Source text: FIG. 7F is a graph illustrating how topotecan alters the variation of circular dichroism (CD) spectrum of RORγt. CD is a powerful method for probing protein and ligand interactions in solution. […] FIG. 7G is a graph plotting CD Signal as a function of wavelength. […] FIG. 7H is an illustration showing how topotecan interacts with multiple important residues on human RORγt. The binding mode of topotecan to human RORγt is examined using molecular docking. […] Put together, by combining information gleaned from the deep learning network model and experimental assays, topotecan is identified as a novel, direct inhibitor of human RORγt.

EAE mice = experiment: Experimental autoimmune encephalomyelitis (EAE) model; type: in vivo, C57BL/6 mice
Procedure: FIG. 8A is a schedule of the application of an experimental autoimmune encephalomyelitis (EAE) model. EAE is a most frequently used experimental animal model for human multiple sclerosis. To investigate the therapeutic potential of topotecan in multiple sclerosis, EAE was induced in C57BL/6 mice by active immunization with […] in complete Freund's adjuvant (CFA) followed by pertussis toxin administration, according to the application schedule shown in FIG. 8A. Topotecan (10 mg/kg) or vehicle (sterile water, control) was administered intraperitoneally every four days during the course of EAE. Disease severity was assessed and graded using a five-point scoring system for 15 days.
During the course of EAE, changes in body weight also reflect disease severity. FIG. 8C is a graph showing weight loss in miss after the application of topotecan during EAE.
Multiple sclerosis is a chronic demyelinating disease accompanied by blood-brain barrier disruption. Near-infrared in vivo imaging is further utilized to evaluate the demyelination and blood-brain barrier leakage in EAE mice. A near-infrared fluorescent dye, 3, 3′-diethylthiatricarbocyanine iodide (DBT), easily enter into the brain and selectively binds to myelin fibers45. […] Cy5.5-BSA, a fluorescent BSA conjugate with bright near infrared fluorescence, penetrates the brain when the blood-brain barrier is disrupted.
T helper 17 (Th17) cells are a highly pro-inflammatory lineage of T helper cells defined by their production of interleukin 17 (IL-17)46. RORγt is necessary and sufficient for cytokine IL-17 expression in mouse and human Th17 cells46. Given the inhibitory effects of topotecan against RORγt, it was investigated whether topotecan affects IL-17 expression in EAE mice.

RORγt = molecular target: T3, RORγt (Mus musculus, UniProt P51450); experiment: Target occupancy in mouse brain with tracer T0901317; type: in vivo, mice
T3 construct: Concentration of T0901317 in mice brain samples; from tissue; host or cells: mouse brain
T3 sequence (P51450 1-495 isoform P51450-2): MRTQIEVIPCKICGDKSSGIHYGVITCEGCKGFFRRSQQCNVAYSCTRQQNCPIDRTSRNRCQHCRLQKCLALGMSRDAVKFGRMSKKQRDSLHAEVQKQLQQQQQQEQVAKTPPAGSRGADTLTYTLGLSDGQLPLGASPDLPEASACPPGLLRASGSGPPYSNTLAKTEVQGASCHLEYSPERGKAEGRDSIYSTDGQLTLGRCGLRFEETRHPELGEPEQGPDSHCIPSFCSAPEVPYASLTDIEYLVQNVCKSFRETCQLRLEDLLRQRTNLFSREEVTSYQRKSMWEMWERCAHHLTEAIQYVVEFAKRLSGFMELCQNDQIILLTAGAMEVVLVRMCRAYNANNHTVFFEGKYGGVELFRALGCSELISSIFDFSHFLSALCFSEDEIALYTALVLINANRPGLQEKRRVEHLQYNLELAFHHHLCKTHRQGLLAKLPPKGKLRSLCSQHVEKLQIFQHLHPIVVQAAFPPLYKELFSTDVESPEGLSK
Procedure: In the data presented in Table 2, T0901317, an orthosteric ligand of RORγt, was used as the tracer for assessing target occupancy of TPT. A Student's t-test was performed to obtain the p-value, and sterile water was used as vehicle.

DRD2 = DRD2 (Homo sapiens, UniProt P14416); settings: published experimental data; cited from earlier work
ADRA2A = molecular target: T4, ADRA2A (Homo sapiens, UniProt P08913); settings: published experimental data; cited from earlier work
T4 sequence (P08913 1-465): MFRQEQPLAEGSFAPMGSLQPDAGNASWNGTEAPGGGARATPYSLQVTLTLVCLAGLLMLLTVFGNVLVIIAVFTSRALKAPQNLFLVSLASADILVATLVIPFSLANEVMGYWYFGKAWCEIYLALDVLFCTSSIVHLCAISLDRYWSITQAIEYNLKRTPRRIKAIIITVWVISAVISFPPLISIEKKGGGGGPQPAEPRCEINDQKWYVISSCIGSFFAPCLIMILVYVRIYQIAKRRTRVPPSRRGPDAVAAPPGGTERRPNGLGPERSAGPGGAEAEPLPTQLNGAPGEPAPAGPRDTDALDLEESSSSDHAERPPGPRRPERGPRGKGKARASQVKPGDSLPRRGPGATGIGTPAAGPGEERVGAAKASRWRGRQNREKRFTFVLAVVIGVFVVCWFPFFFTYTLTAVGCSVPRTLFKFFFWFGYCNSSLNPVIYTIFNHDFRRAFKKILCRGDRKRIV

[7] = mouse, ip, brain, intraperitoneal injection in mice
[8] = mouse, ip, plasma, intraperitoneal injection in mice
[9] = 10 mg/kg intraperitoneally every four days
[10] = at a concentration of 10 μM, GAL4-RORγt HEK293T luciferase reporter, read-out: inhibitory rate
[11] = read-out: inhibitory rate, at a concentration of 10 μM, GAL4-RORγt HEK293T luciferase reporter

Chain of firefly luciferase (P08659 whole entry): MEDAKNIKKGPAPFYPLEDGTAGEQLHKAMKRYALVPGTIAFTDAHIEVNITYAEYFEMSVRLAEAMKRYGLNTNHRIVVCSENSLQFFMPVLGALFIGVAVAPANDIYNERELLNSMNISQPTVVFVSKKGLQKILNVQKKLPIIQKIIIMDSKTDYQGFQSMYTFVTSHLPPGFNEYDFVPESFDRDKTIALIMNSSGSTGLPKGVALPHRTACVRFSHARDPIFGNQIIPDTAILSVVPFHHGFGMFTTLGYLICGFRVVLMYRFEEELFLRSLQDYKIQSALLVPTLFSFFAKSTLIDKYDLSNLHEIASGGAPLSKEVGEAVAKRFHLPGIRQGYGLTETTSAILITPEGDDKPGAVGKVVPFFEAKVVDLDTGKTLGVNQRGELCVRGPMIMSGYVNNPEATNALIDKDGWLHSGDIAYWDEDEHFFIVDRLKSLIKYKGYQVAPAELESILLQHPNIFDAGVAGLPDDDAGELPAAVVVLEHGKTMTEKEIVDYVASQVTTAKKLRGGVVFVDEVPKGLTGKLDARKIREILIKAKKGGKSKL
Chain of retinoid X receptor α LBD (RXRα-LBD) (P19793 227-458 limits assumed, species assumed): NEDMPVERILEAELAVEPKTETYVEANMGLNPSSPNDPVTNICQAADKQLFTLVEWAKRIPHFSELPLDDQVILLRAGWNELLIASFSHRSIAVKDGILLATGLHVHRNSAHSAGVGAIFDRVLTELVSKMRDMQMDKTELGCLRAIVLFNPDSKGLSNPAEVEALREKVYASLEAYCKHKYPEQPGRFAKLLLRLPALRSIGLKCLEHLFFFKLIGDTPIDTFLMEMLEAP
Chain of DRD2 (P14416 whole entry): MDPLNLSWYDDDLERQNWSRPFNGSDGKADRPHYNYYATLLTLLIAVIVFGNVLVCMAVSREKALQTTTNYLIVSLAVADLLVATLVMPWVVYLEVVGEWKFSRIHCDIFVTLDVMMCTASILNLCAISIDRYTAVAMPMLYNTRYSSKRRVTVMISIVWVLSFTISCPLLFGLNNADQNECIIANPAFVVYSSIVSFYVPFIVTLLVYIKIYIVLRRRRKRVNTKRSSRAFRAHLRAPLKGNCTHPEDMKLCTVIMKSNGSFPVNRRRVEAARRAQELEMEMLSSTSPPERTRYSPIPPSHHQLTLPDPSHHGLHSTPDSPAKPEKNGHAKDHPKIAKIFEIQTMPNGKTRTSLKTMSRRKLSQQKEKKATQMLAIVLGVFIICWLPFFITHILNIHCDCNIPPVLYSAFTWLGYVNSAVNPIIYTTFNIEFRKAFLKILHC

SMILES: CC[C@@]1(O)C(=O)OCc2c1cc1n(c2=O)Cc2cc3c(CN(C)C)c(O)ccc3nc2-1 [topotecan]
toxicity on normal cell lines or other mice organs [1]: very low toxicity | effect on HEK293T cell viability (HEK293T cells): minor effect | IC50 (RORγt-LBD [2]): 6.65 ± 0.02 µM | brain penetration ([3]; mouse models): ideal brain penetration | AUC(0-inf) [3, 7]: 173 ng·h/mL | AUC(0-t) [3, 7]: 170 ng·h/mL | Cmax [3, 7]: 121 ng/mL | Tmax [3, 7]: 30 min | AUC(0-inf) [3, 8]: 3310 ng·h/mL | AUC(0-t) [3, 8]: 3280 ng·h/mL | Cmax [3, 8]: 3250 ng/mL | Tmax [3, 8]: 30 min | half-life [3, 8]: 289 min | direct interaction by HPLC [4]: not with retinoid X receptor α LBD | direct interaction by HPLC (RORγt-LBD [5]): directly interacts with RORγt-LBD | IC50 (human RORγt; GAL4-RORγt expressing HEK293T cells, read-out: IC50 (antagonistic activity)): 430 ± 20 nM | inhibitory rate (human RORγt; at a concentration of 10 μM, GAL4-RORγt HEK293T luciferase reporter, 10 µM): 71.0% | suppression of control firefly luciferase activity (firefly luciferase): no suppression is observed | change of CD spectrum of RORγt (direct binding) (RORγt-LBD [6]): alters the variation of CD spectrum of RORγt | EAE induced body weight loss (EAE mice; [9]): more tolerable to EAE induced body weight loss than vehicle-treated mice | onset of clinical symptoms (EAE mice; [9]): significantly delay in the onset of clinical symptoms | clinical score (EAE mice; 10 mg/kg intraperitoneally every four days, five-point scoring): observable reduction of clinical score | IL-17 production in brain and spinal cords (EAE mice; ELISA): significantly reduces IL-17 production | demyelination in white matter (LFB staining) (EAE mice; day 20 after immunization): demyelination is significantly reversed | infiltration of leukocytes in spinal cord (H&E staining) (EAE mice; day 20 after immunization): infiltration is largely reduced | DBT near-infrared fluorescence (myelin imaging) (EAE mice; near-infrared in vivo imaging): reverses fluorescence | accumulation of Cy5.5-BSA fluorescent probe in the brain (blood-brain barrier leakage) (EAE mice; near-infrared in vivo imaging): higher accumulation of the fluorescent probe in the brain of vehicle treated mice as compared to the topotecan treatment group | Concentration of T0901317 in mice brain samples (RORγt; individual mice 1-5, TPT-treated, tracer T0901317, listed as TPT): 2788.48 ng/g and 4396.96 ng/g and 3365.97 ng/g and 3736.16 ng/g and 3212.96 ng/g | Concentration of T0901317 in mice brain samples, Mean (RORγt; mean of 5 TPT-treated mice, vehicle mean 4426.55, P-value 0.0029): 3500.11 ng/g

inhibition at 10 µM (human RORγt; [10]): > 30%
SMILES: CCOC(=O)c1ccc(C#Cc2ccc3c(c2)C(C)(C)CCS3)nc1 [tazarotene]

inhibition at 10 µM (human RORγt; [11]): > 30%
SMILES: CC(=O)S[C@@H]1CC2=CC(=O)CC[C@]2(C)[C@H]2CC[C@@]3(C)[C@@H](CC[C@@]34CCC(=O)O4)[C@H]12 [spironolactone]

inhibition at 10 µM (human RORγt; [10]): > 30%
SMILES: CN(CCOc1ccc(CC2SC(=O)NC2=O)cc1)c1ccccn1 (stereo not drawn) [rosiglitazone]

SMILES: CC(CCc1ccc(O)cc1)NCCc1ccc(O)c(O)c1 (stereo not drawn) [dobutamine]
IC50 (DRD2): 8.22 µM | IC50 (ADRA2A): 10.8 µM

inhibition at 10 µM (human RORγt; [11]): > 30%
SMILES: C#C[C@]1(O)CC[C@H]2[C@@H]3CCC4=CC(=O)CC[C@@H]4[C@H]3CC[C@@]21C [norethindrone]

inhibition at 10 µM (human RORγt; [10]): > 30%
SMILES: CC(C)(Oc1ccc(CCNC(=O)c2ccc(Cl)cc2)cc1)C(=O)O [bezafibrate]
